The record followed here is ChEMBL document CHEMBL6178017, “Intercepting the Downstream of the Estrogen Receptor Signaling Pathway: Discovery of a Potent and Efficient SRC-3 PROTAC Degrader for Overcoming Endocrine Resistance Breast Cancer” (J Med Chem, 2025).

Each structure is given as a SMILES string. Calls of active or inactive are those of the source. The calls are words filed in the database; no cut-off is given here.

A short description of series [1]: Antiproliferative activity against tamoxifen-resistant human LCC2 cells assessed as inhibition of cell growth by CCK8 assay. The format is functional, cell-based. A general note: Formazan colour is commonly taken as a measure of viable cells.
Series [2] concerns the target T1, Protein cereblon/Nuclear receptor coactivator 3 (Homo sapiens, UniProt Q9Y6Q9+Q96SW2). Description: PROTAC activity at CRBN/SRC-3 in human MCF7 cells assessed as induction of ER-alpha degradation at 1 uM incubated for 24 hrs by immunoblot analysis relative to control. The format is cell-based. (A western blot detects proteins with antibodies after separation by electrophoresis.)

For series [3], the system named is MCF7. Description: Antiproliferative activity against human MCF7 cells harboring ER-alpha D538G mutant assessed as inhibition of cell growth by CCK8 assay. The format is functional, cell-based.
Series [4] deals with MCF7. Description: Antiproliferative activity against human MCF7 cells assessed as inhibition of cell growth by CCK8 assay. Type of series: functional, cell-based.
Series [5] relates to MCF7. Description: Antiproliferative activity against human MCF7 cells harboring ER-alpha Y537S mutant assessed as inhibition of cell growth by CCK8 assay. The format is functional, cell-based.
Series [6] deals with T1, Protein cereblon/Nuclear receptor coactivator 3. Description: PROTAC activity at CRBN/SRC-3 in human MCF7 cells assessed as induction of SRC-3 degradation at 1 uM incubated for 24 hrs by immunoblot analysis relative to control. Type of series: cell-based.
Series [7] deals with T2, von Hippel-Lindau disease tumor suppressor/Nuclear receptor coactivator 3 (Homo sapiens) (UniProt Q9Y6Q9+P40337). Description: PROTAC activity at VHL/SRC-3 in human MCF7 cells assessed as induction of SRC-3 degradation at 1 uM incubated for 24 hrs by immunoblot analysis relative to control. Type of series: cell-based.
Series [8] deals with T2, von Hippel-Lindau disease tumor suppressor/Nuclear receptor coactivator 3 (Homo sapiens). Description: PROTAC activity at VHL/SRC-3 in human MCF7 cells assessed as induction of […] degradation at 1 uM incubated for 24 hrs by immunoblot analysis relative to control. Type of series: cell-based.
For series [9], the system named is MCF-10A. Description: Cytotoxicity against human MCF-10A cells assessed as cell growth by CCK-8 assay. Type of series: toxicity, cell-based.
Series [10] can be described thus: Half life of the compound in human plasma by LC-MS/MS analysis. The format is ADME, cell-free.

T2 sequence (P40337 whole entry, looked up): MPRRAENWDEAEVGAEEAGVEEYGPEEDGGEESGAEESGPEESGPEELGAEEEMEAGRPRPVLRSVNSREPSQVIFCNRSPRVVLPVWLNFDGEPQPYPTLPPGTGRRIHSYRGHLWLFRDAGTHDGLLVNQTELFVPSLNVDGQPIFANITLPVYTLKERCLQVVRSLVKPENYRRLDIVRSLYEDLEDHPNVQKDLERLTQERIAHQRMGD
T2 sequence (Q9Y6Q9 whole entry, looked up): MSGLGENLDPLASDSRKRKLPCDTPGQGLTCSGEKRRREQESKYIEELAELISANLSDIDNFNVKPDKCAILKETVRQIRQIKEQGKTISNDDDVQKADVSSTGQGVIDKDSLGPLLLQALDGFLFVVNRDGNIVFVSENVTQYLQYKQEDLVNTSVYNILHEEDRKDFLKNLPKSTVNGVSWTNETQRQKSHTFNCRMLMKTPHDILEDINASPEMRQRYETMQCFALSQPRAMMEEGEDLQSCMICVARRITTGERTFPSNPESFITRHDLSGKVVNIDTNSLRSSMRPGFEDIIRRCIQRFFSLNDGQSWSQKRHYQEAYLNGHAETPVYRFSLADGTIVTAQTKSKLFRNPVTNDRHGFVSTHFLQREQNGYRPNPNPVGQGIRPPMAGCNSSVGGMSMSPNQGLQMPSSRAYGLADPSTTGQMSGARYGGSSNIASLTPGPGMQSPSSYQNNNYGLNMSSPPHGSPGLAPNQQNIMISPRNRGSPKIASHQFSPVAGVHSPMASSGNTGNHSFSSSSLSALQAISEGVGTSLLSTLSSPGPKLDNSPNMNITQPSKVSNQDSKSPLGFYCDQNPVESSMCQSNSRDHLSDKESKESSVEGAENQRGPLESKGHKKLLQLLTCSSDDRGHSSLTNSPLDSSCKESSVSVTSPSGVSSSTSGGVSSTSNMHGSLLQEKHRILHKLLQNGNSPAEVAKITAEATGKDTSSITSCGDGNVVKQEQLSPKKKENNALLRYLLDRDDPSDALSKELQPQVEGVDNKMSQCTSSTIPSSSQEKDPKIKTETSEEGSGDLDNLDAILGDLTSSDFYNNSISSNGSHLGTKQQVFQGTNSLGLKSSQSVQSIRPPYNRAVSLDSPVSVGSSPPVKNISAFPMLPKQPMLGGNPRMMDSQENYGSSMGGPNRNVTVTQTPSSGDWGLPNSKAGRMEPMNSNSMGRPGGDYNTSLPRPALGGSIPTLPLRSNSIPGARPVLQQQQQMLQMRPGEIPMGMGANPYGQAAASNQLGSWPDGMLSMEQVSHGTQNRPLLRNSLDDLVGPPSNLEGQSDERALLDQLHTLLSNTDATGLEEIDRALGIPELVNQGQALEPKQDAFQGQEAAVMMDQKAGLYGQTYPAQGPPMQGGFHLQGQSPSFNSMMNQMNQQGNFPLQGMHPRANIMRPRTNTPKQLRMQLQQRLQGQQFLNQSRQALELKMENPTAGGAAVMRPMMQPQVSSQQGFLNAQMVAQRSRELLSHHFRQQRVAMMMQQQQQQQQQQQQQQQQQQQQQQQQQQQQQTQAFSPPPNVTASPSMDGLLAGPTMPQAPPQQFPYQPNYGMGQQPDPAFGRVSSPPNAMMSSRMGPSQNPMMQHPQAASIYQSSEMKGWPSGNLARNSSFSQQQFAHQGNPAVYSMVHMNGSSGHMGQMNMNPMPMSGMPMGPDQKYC
T1 sequence (Q96SW2 whole entry partner): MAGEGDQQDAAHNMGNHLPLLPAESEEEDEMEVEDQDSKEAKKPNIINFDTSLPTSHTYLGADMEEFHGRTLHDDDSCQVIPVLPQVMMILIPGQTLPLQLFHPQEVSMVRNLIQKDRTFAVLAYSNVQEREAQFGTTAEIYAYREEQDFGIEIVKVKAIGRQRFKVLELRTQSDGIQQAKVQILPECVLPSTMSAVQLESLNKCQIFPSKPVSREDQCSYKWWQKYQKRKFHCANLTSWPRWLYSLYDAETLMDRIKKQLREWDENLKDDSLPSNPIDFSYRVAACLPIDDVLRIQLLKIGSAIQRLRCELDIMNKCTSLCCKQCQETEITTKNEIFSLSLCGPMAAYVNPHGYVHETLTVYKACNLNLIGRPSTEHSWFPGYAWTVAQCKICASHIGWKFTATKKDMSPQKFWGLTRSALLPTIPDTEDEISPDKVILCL
T1 sequence (Q9Y6Q9 2-1424 limits assumed): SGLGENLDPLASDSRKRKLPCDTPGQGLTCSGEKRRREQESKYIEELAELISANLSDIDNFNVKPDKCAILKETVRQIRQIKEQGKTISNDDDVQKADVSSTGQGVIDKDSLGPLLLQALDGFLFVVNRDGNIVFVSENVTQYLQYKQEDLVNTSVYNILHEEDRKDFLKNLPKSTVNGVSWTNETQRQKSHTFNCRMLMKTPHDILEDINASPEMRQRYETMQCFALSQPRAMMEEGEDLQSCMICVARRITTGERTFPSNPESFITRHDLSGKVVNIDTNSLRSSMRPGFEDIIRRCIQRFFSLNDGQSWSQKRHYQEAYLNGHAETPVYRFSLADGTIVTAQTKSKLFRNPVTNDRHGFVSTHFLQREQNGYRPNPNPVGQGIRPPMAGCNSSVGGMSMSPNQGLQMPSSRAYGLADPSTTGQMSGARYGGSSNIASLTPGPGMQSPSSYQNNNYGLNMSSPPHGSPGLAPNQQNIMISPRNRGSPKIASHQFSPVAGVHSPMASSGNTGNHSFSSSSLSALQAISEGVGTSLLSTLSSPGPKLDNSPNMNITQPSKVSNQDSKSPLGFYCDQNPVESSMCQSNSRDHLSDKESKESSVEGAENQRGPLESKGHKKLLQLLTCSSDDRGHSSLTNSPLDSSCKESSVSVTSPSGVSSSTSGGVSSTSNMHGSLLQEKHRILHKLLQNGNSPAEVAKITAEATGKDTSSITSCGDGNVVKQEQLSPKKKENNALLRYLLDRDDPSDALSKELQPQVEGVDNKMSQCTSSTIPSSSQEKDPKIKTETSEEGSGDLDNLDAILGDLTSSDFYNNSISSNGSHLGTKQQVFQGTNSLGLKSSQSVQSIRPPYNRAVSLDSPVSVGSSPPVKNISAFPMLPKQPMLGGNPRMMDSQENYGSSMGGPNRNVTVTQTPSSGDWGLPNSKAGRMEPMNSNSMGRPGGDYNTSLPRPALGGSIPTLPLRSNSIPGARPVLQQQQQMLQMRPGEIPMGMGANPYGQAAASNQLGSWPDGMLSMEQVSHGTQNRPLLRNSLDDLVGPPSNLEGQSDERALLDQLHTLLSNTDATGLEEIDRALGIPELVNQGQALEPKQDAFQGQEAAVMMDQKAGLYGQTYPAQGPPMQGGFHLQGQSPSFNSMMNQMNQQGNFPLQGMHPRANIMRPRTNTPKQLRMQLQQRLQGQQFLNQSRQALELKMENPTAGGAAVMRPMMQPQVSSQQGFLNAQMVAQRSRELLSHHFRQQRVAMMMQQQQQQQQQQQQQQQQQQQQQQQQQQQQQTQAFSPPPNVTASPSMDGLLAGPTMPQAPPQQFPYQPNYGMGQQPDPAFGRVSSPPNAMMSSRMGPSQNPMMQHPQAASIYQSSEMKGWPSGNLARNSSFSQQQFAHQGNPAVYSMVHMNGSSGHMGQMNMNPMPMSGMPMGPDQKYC

For the molecule `C/C(=N\Nc1nc2ccccc2n1CC1CCN(c2ccc3c(c2)C(=O)N(C2CCC(=O)NC2=O)C3=O)CC1)c1ccccn1` (stereo not drawn), the concentration for half-maximal inhibition (IC50) is 5100 nM in series [1], 1520 nM in series [3], 1130 nM in [4] and 360 nM in series [5]. Also, the Activity was 34% in series [2] and 28% in [6].
For the molecule `CC/C(=C(\c1ccc(O)cc1)c1ccc(OCCN(C)C)cc1)c1ccccc1` [AFIMOXIFENE], the IC50 in series [1] was found to be 26500 nM; in series [3] it was 8570 nM; in [4], 380 nM; in series [5], 18800 nM.
Turning to `C/C(=N\Nc1nc2ccccc2n1CCNC(=O)CN1CCC(CN2CCN(c3ccc4c(c3)C(=O)N(C3CCC(=O)NC3=O)C4=O)CC2)CC1)c1ccccn1` (stereo not drawn), the IC50 in series [1] amounted to 8740 nM; in series [3], 850 nM; in series [4] it was 1230 nM; in series [5], 500 nM. Besides, the Activity in [2] was 30%; in series [6] it was 23%.
As for `C/C(=N\Nc1nc2ccccc2n1CCNC(=O)CCCCCCCCCN[C@H](C(=O)N1C[C@H](O)C[C@H]1C(=O)N[C@@H](C)c1ccc(-c2scnc2C)cc1)C(C)(C)C)c1ccccn1`, the figures for the Activity in series [7], in series [8] and in [9] were 63%, 61% and “Non-toxic”, respectively. In addition, the 50% inhibitory concentration (IC50) in series [1] came out at 1110 nM; in series [3], 350 nM; in series [4] it was 90 nM; in series [5] it was 130 nM.
In the case of `CCN(CC)CCOC(=O)c1ccc(N)cc1` [PROCAINE], in series [10], the half-life turned out to be 1.82 min.
Turning to `C/C(=N\Nc1nc2ccccc2n1CC1CCN(CC(=O)N[C@H](C(=O)N2C[C@H](O)C[C@H]2C(=O)N[C@@H](C)c2ccc(-c3scnc3C)cc2)C(C)(C)C)CC1)c1ccccn1`, the figures for the Activity in [7], in series [8] and in series [9] were 21%, 10% and “Non-toxic”, respectively. The IC50 came to 2760 nM in [1], 690 nM in series [3], 690 nM in series [4] and 940 nM in series [5].
Regarding `C/C(=N\Nc1nc2ccccc2n1C1CN(c2cccc3c2C(=O)N(C2CCC(=O)NC2=O)C3=O)C1)c1ccccn1` (stereo not drawn), the concentration for half-maximal inhibition (IC50) in [1] was found to be 3360 nM; in series [3], 520 nM; in [4], 9390 nM; in [5] it was 100 nM. The figures for the Activity in series [2] and in [6] were 16% and 17%, respectively.
On to `C/C(=N\Nc1nc2ccccc2n1CCNC(=O)CCCCCCCCCCN[C@H](C(=O)N1C[C@H](O)C[C@H]1C(=O)N[C@@H](C)c1ccc(-c2scnc2C)cc1)C(C)(C)C)c1ccccn1`, for which the Activity was 62% in [7], 62% in [8] and “Non-toxic” in series [9]. In addition, the 50% inhibitory concentration (IC50) in [1] came out at 1060 nM; in series [3], 410 nM; in series [4], 80 nM; in [5], 160 nM.
In the case of `C/C(=N\Nc1nc2ccccc2n1CC1CCN(C(=O)CCCCCCCNc2cccc3c2CN(C2CCC(=O)NC2=O)C3=O)CC1)c1ccccn1` (stereo not drawn), the half-maximal inhibitory concentration (IC50) is 5030 nM in [1], 1260 nM in series [3], 840 nM in [4] and 930 nM in series [5]. Further, the Activity in series [2] worked out at 39%; in series [6] it was 32%.
With `C/C(=N\Nc1nc2ccccc2n1CC1CN(c2ccc3c(c2)C(=O)N(C2CCC(=O)NC2=O)C3=O)C1)c1ccccn1` (stereo not drawn), the IC50 in series [1] amounted to 3110 nM; in [3], 290 nM; in series [4], 370 nM; in [5], 320 nM. Also, in series [2], the Activity was determined as 15%. The outcome in series [6] was inactive.
With `C/C(=N\Nc1nc2ccccc2n1CCNC(=O)CCCCCCCN[C@H](C(=O)N1C[C@H](O)C[C@H]1C(=O)N[C@@H](C)c1ccc(-c2scnc2C)cc1)C(C)(C)C)c1ccccn1`, the results for the Activity in series [7], in [8] and in series [9] were 56%, 38% and “Non-toxic”, respectively. Further, the 50% inhibitory concentration (IC50) turned out to be 1940 nM in series [1], 450 nM in series [3], 520 nM in [4] and 360 nM in series [5].
Regarding `C/C(=N\Nc1nc2ccccc2n1C1CN(C(=O)C2CN(c3cccc4c3C(=O)N(C3CCC(=O)NC3=O)C4=O)C2)C1)c1ccccn1` (stereo not drawn), the IC50 in [1] was found to be 14800 nM; in [3] it was 11800 nM; in series [4], 8240 nM; in [5] it was 19100 nM. Also, the Activity in series [2] was found to be 5%. Besides, in series [6], the outcome was inactive.
Take `C/C(=N\Nc1nc2ccccc2n1C1CN(c2ccc3c(c2)C(=O)N(C2CCC(=O)NC2=O)C3=O)C1)c1ccccn1` (stereo not drawn): the IC50 in series [1] was 4940 nM; in [3], 960 nM; in series [4], 320 nM; in series [5] it was 680 nM. The outcome in [2] was inactive. The Activity in [6] amounted to 10%.
On to `C/C(=N\Nc1nc2ccccc2n1CCNC(=O)C1CC2(CCN(c3ccc4c(c3)C(=O)N(C3CCC(=O)NC3=O)C4=O)CC2)C1)c1ccccn1` (stereo not drawn), for which the IC50 in series [1] was 8630 nM; in series [3], 1110 nM; in series [4], 2940 nM; in [5] it was 1060 nM. Also, the result in series [2] was inactive. Also, the Activity in series [6] was 5%.
As to `C/C(=N\Nc1nc2ccccc2n1C1CN(C(=O)C2CCN(c3cccc4c3C(=O)N(C3CCC(=O)NC3=O)C4=O)CC2)C1)c1ccccn1` (stereo not drawn), the concentration for half-maximal inhibition (IC50) in series [1] came out at 5850 nM; in series [3] it was 1730 nM; in series [4], 4880 nM; in series [5], 750 nM. The Activity was 15% in [2] and 29% in series [6].
`C/C(=N\Nc1nc2ccccc2n1CCNC(=O)CCCCCN[C@H](C(=O)N1C[C@H](O)C[C@H]1C(=O)N[C@@H](C)c1ccc(-c2scnc2C)cc1)C(C)(C)C)c1ccccn1`: the Activity is 8% in series [7], 15% in series [8] and “Non-toxic” in [9]. Further, the IC50 is 7140 nM in series [1], 2530 nM in series [3], 1590 nM in series [4] and 2750 nM in series [5].
As to `C/C(=N\Nc1nc2ccccc2n1CCNC(=O)CCCCCCN[C@H](C(=O)N1C[C@H](O)C[C@H]1C(=O)N[C@@H](C)c1ccc(-c2scnc2C)cc1)C(C)(C)C)c1ccccn1`, the Activity in series [7] was 62%; in series [8], 43%; in series [9], “Non-toxic”. Also, the concentration for half-maximal inhibition (IC50) was found to be 3700 nM in series [1], 1040 nM in series [3], 470 nM in [4] and 830 nM in [5].
For `C/C(=N\Nc1nc2ccccc2n1CC1CN(c2cccc3c2C(=O)N(C2CCC(=O)NC2=O)C3=O)C1)c1ccccn1` (stereo not drawn), the IC50 stood at 6280 nM in series [1], 560 nM in [3], 2970 nM in [4] and 130 nM in [5]. Further, the values for the Activity in series [2] and in [6] were 26% and 15%, respectively.
For `C/C(=N\Nc1nc2ccccc2n1CCNC(=O)CN1CCC2(CC1)CCN(c1ccc3c(c1)C(=O)N(C1CCC(=O)NC1=O)C3=O)CC2)c1ccccn1` (stereo not drawn), the half-inhibitory concentration (IC50) turned out to be 7990 nM in series [1], 6990 nM in [3], 5590 nM in [4] and 7200 nM in series [5]. Also, the outcome in series [2] and in series [6] was inactive.

The IC50 is the concentration that inhibits the measured activity by half. One may read the half-life as the time in which the quantity being followed falls by half. Read a low half-life as rapid decline.
